A short description of series [1]: Cytotoxicity against human HPAEpic cells assessed as reduction in cell viability after 24 hrs by MTT assay. As to conditions: for CC50 at 24 h: HPAEpic cells. Type of series: cell-based. (Tetrazolium dyes change colour on reduction, which living cells bring about.)
Series [2] in a line: Cytotoxicity against human IOSE-80 cells assessed as reduction in cell viability after 24 hrs by MTT assay. Type of series: cell-based. As to conditions: for CC50 at 24 h: IOSE-80 cells; for CC50: 24 h.
Series [3] can be described thus: (§1) Cytotoxicity against human GES-1 cells assessed as reduction in cell viability after 24 hrs by MTT assay. It counts as cell-based, GES1. As to conditions: GES-1 cells.
Series [4] in a line: (§2) Cytotoxicity against human L02 cells assessed as reduction in cell viability after 24 hrs by MTT assay. Type of series: cell-based. As to conditions: L02 cells.
The next series deals with Thymidylate synthase (Homo sapiens, UniProt P04818). In words: Inhibition of human thymidylate synthase using dUMP as substrate by spectrophotometric method.
Series [5] is described as follows: Selectivity index, ratio of CC50 for cytotoxicity against human HPAEpic cells to IC50 for antiproliferative activity against human A549 cells. As to conditions: HPAEpic cells (CC50) versus A549 cells (IC50).
Series [6] can be described thus: Selectivity index, ratio of CC50 for cytotoxicity against human IOSE-80 cells to IC50 for antiproliferative activity against human OVCAR3 cells. As to conditions: IOSE-80 cells (CC50) versus OVCAR3 cells (IC50).
A short description of series [7]: Selectivity index, ratio of CC50 for cytotoxicity against human GES-1 cells to IC50 for antiproliferative activity against human SGC7901 cells. As to conditions: GES-1 cells (CC50) versus SGC7901 cells (IC50).
Series [8] can be described thus: Selectivity index, ratio of CC50 for cytotoxicity against human L02 cells to IC50 for antiproliferative activity against human HepG2 cells. As to conditions: L02 cells (CC50) versus HepG2 cells (IC50).
Series [9] concerns A549. In words: Antiproliferative activity against human A549 cells assessed as reduction in cell viability at 0.625 uM after 24 hrs by MTT assay. Type of series: functional. As to conditions: A549, 24 h.
Series [10] has as its system A549. As to the kind of experiment: Antiproliferative activity against human A549 cells assessed as reduction in cell viability at 1.25 uM after 24 hrs by MTT assay. As to conditions: A549, 24 h. Type of series: functional.
Series [11] deals with A549. In words: Antiproliferative activity against human A549 cells assessed as reduction in cell viability at 5 uM after 24 hrs by MTT assay. It counts as functional. As to conditions: A549, 24 h.
In series [12] the test system is A549. In words: Antiproliferative activity against human A549 cells assessed as reduction in cell viability at 10 uM after 24 hrs by MTT assay. Type of series: functional. As to conditions: A549, 24 h.
For series [13], the system named is A549. As to the kind of experiment: Antiproliferative activity against human A549 cells assessed as reduction in cell viability at 20 uM after 24 hrs by MTT assay. It counts as functional. As to conditions: A549, 24 h.
In a further series the test system is OVCAR-3. In words: cells. As to conditions: Homo sapiens, OVCAR-3, 24 h.
For another series, the system named is SGC-7901. In words: cells. As to conditions: Homo sapiens, SGC-7901, 24 h.
The test system of a further series is HepG2. In words: cells. As to conditions: Homo sapiens, HepG2, 24 h.
A further series relates to GES1. Described as §1. Type of series: cell-based. As to conditions: ges1, 24 h.
A further series concerns L02. The series is described as §2. As to conditions: l02, 24 h. It counts as cell-based.
The subject of series [14] is A549. As to the kind of experiment: cells. As to conditions: Homo sapiens, A549, 24 h.
Description: Antiproliferative activity against human A549 cells assessed as reduction in cell viability after 24 hrs by MTT assay

Some results are limits rather than exact numbers.

As usually defined, the CC50 is the concentration that lowers cell viability or growth by half. A word on the IC50: it is the concentration that gives 50% inhibition. By inhibition is commonly meant the drop in the measured response relative to a control, in per cent.

Sequence of Thymidylate synthase (P04818 whole entry): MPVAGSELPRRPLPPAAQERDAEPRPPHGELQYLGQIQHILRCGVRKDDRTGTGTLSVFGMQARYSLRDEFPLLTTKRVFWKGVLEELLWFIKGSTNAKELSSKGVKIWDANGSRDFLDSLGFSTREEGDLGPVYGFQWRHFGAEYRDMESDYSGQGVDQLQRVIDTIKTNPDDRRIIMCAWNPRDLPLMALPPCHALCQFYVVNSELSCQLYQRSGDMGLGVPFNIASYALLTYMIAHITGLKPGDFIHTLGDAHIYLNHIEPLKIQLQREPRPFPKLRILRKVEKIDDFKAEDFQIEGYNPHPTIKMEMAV
Description for HepG2: Antiproliferative activity against human HepG2 cells assessed as reduction in cell viability after 24 hrs by MTT assay
Description for OVCAR-3: Antiproliferative activity against human OVCAR3 cells assessed as reduction in cell viability after 24 hrs by MTT assay
Description for SGC-7901: Antiproliferative activity against human SGC7901 cells assessed as reduction in cell viability after 24 hrs by MTT assay

Take `Nc1nc2[nH]cc(CCc3ccc(C(=O)N[C@@H](CCC(=O)O)C(=O)O)cc3)c2c(=O)[nH]1` [PEMETREXED DISODIUM]: the CC50 at 24 h in [1] turned out to be 25.4 µM; in [2], 15.5 µM; in series [3], 22.6 µM; in series [4] it was 30.7 µM. The IC50 turned out to be 2.04 µM against Thymidylate synthase, 4.35 µM in the series with OVCAR-3, 6.96 µM in the series on SGC-7901 and 3.73 µM in the series on HepG2. Besides, the selectivity ratio in [5] is 7.71; in series [6], 3.56; in [7], 3.25; in series [8] it was 8.23. Besides, the inhibition at 0.625 µM in the series with A549 [9] was 27.2%. In addition, the inhibition at 1.25 µM in the series with A549 [10] came out at 39.9%. Further, in the series on A549 [11], the inhibition at 5 µM worked out at 47.1%. Further, the inhibition at 10 µM in the series with A549 [12] is 58.7%. Further, the inhibition at 20 µM in the series with A549 [13] is 74.7%.
As for `Cc1ccc(-n2cc(-c3ccc(NS(=O)(=O)c4c[nH]c(=O)[nH]c4=O)cc3)nn2)cc1`, the CC50 at 24 h in [1] was determined as 29.1 µM; in series [2], 30.5 µM. Further, the CC50 entry in the series on GES1 and in the series on L02 was “Non-Toxic” each time. In addition, the IC50 was found to be 5.56 µM in the series on A549 [14], 5.63 µM in the series with OVCAR-3, 8.35 µM in the series with SGC-7901 and 11.6 µM with HepG2.
Consider `O=c1[nH]cc(S(=O)(=O)Nc2cccc(-c3cn(-c4cccc(F)c4)nn3)c2)c(=O)[nH]1`, for which the CC50 result (in series [1] (24 h); in series [2]; in the series on GES1; in the series with L02) was “Non-Toxic” throughout. In addition, the IC50 is 7.2 µM in the series on A549 [14], over 20 µM with OVCAR-3, over 20 µM in the series with SGC-7901 and over 20 µM in the series on HepG2.
For `O=c1[nH]cc(S(=O)(=O)Nc2ccccc2-c2cn(-c3cccc(F)c3)nn2)c(=O)[nH]1`, in series [1], the CC50 at 24 h is over 100 µM. Besides, the CC50 entry (in series [2]; with GES1; in the series with L02) was “Non-Toxic” in each case. For the same molecule, the IC50 is 8.13 µM with A549 [14], over 20 µM with OVCAR-3, over 20 µM with SGC-7901 and over 20 µM in the series on HepG2.

Values taken from ChEMBL document CHEMBL4346687, “Design, synthesis and biological evaluation of novel uracil derivatives bearing 1, 2, 3-triazole moiety as thymidylate synthase (TS) inhibitors and as potential antitumor drugs” (Eur J Med Chem, 2019).
